Patent publication US20230355562A1, “METHODS FOR STABILIZING ATHEROSCLEROTIC PLAQUES USING LIPOXINS, RESOLVINS, AND ANALOGS THEREOF” (The Forsyth Institute, priority 2015, published 2023)

Key:
[1] = system: atherosclerotic plaques; assay: Plaque disruption by MRI before and after triggering in a rabbit model of atherosclerosis (cholesterol diet plus balloon injury); assay type: in vivo, New Zealand White (NZW) rabbits; conditions: for plaque stabilization: applied to both sides of the mandible on the gingiva every-other-day, high cholesterol diet and balloon injury to descending thoracic and abdominal aortic segments
Description: New Zealand White (NZW) rabbits (n=10) received cholesterol-enriched diet (1%) for 8 weeks to develop atherosclerosis. In addition, balloon injury was performed at 2 weeks to advance the atherosclerosis at the descending thoracic and abdominal aortic segments. The […] of cholesterol feeding was followed by a 4 week period of normal chow diet at the end of the experiment. Half of the rabbits were randomized in the experimental (9,12 benzo LXA4-treated) group and half in the control group.
Topical LXA4 (1 mg/ml) was applied on both side of the mandible on the gingiva every-other-day for the duration of the experiment. In vivo MRI images were taken at 12 weeks at before and after triggering. After euthanasia, the aortas were dissected for ex-vivo MRI and histology.

[2] = system: polymorphonuclear leukocyte (PMN) infiltration; conditions: in vivo, mouse model of acute inflammation; cited from earlier work

Molecule	plaque stabilization [1]	segments that showed disruption (post-trigger image showed a luminal thrombus) of segments analyzed ([1]; treatment group, topical 1 mg/ml on gingiva, both sides of the mandible, every-other-day, in vivo MRI at 12 weeks, only one site in one rabbit)	levels of pro-inflammatory cytokines [2]	polymorphonuclear leukocyte (PMN) infiltration [2]
CC[C@@H](O)/C=C/C=C\C[C@@H](O)/C=C/C=C/C=C\[C@@H](O)CCCC(=O)O [Resolvin E1]	sufficient to stabilize atherosclerotic plaques			
9,12 benzo LXA4	sufficient to stabilize atherosclerotic plaques	2/104	significantly reducing	significantly reducing
